Source: patent US7892764B2, “System for seizure suppression” (priority 2006, dated 2011)

How the values were obtained:
[1] = tested on: mouse hippocampal slices; experiment: Low Mg2+-induced epileptiform bursting activity (evoked and spontaneous) in hippocampal slices; format: cell-based; details: Mg2+-free aCSF; for frequency of spontaneous clustered bursts / frequency of spontaneous clustered bursts relative to control: bath perfusion
Method: Limbic seizures (Avoli et al., 2002) are modeled by removing Mg^2+ from artificial cerebral spinal fluid (aCSF) in slices of hippocampal-entorhinal cortex, which triggers interictal-like bursting activity, or spontaneous ictal-like events (Wong et al., 2001; Anderson et al., 1986). In the presence of normal Mg^2+ (1.5 mM), stimulation of Schaffer collaterals induces single population spike or EPSP in the CA1 region of the hippocampus. […] Perfusion with Mg^2+-free aCSF for about 30 min evoked synchronous burst firing with the same stimulation intensity. In about, 30% of the slices, spontaneous clustered bursts developed in the absence of electrical stimulation. Bath perfusion of amiloride or PcTX1 for 10 min reduced the amplitude and frequency of evoked bursting activity (FIGS. 5A and 5B). Amiloride (100 μM) reduced the amplitude of the first and the second population spikes (from 1.2±0.2 mV to 0.5±0.2 mV and 0.6±0.03 mV to 0.2±0.05 mV, respectively (n=9: p<0.01, FIGS. 5A and 5B), and the number of population spikes (from 4.7±0.6 to 3.3±0.8, n=9, p<0.05)). Similarly, PcTX1 (200 ng/mL) attenuated the amplitude of the population spike (from 2.1±0.3 to 1.6±0.2 mV, n=9, p<0.05) and the number of spikes (from 4.2±0.6 to 3.0±0.6, p<0.05).
(§1) Preparation of hippocampal slices and brain slice recording. Hippocampal slices were obtained from 8- to 10-week-old mice. The protocol for brain-slice recording was approved by the Institutional Animal Care and Use Committee of Legacy Research. Animals were deeply anesthetized with isoflurane and decapitated. Brains were quickly removed and placed in ice-cold solution that contained: 125 mM sucrose, 2.5 mM KCl, 26 mM NaHCO3, 1.25 mM NaHPO4, 6.0 mM […], 0.5 mM CaCl2, and 10 mM glucose, and was saturated with 95% O2 and 5% CO2 (pH 7.4). Hippocamnpal slices were cut in 400 μm thickness in transverse plane with a vibratome (Leica VT 1000S) and placed in a slice holding chamber (BSC-PC Prechamber, Warner Instrument) and incubated in normal artificial cerebral spinal fluid (aCSF) that contained: 125 mM NaCl, 2.5 mM KCl, 26 mM NaHCO3, 1.25 mM […], 1.0 mM MgSO4, 2.0 mM CaCl2, and 10 mM glucose, and was saturated with 95% O2 and 5% CO2 (pH 7.4).
(§2) Following ˜60 min of incubation at room temperature, individual slices were transferred to a submerged slice chamber with a volume of 0.5 mL (Warner Instruments, Hamden, Conn.) and perfused with oxygenated aCSF (35° C.) at a rate of 3-4 mL/min. Recording electrodes were pulled from borosilicate glass and filled with aCSF. The population spike and the field excitatory postsynaptic potentials (fEPSP) were recorded in stratum pyramidale and striatum radiatum of hippocampal CA1 region, by stimulating Schaffer Collaterals.
(§3) For low Mg^2+ induced epileptic burst activity, Mg^2+-free aCSF was perfused to the slices for ˜30 min. For stimulus-train induced bursting discharges (STIB), each stimulation train consisted of 120 pulses at 60 Hz and each pulse was 100 μsec in duration (Stasheff et al., 1985). A 10-minute interval of non-stimulation was provided between successive trains of high frequency stimulation. Stimulation electrodes were located in striatum radiatum between CA1 and CA3 region. The population spikes were recorded from striatum pyramidale of the CA3 region.
Pharmacological and electrical bursting models. To induce epileptic burst discharges, Mg^2+-free aCSF was applied. Mg^2+-free aCSF was obtained by simply omitting MgSO4 from aCSF.

[2] = tested on: mouse hippocampal slices; experiment: Stimulus train-induced after-discharges in hippocampal slices; format: cell-based
Method: ASIC blockade on seizure-like bursting activity induced by high frequency stimulus trains, e.g., after-discharges (Stasheff et al., 1985), was determined as high frequency electric stimulation generates epileptic bursting without disrupting the balance of excitation versus inhibition thus more closely mimicking epileptogenesis in vivo (Stasheff et al., 1985). Following approximately five trains of stimulation, relatively stable after-discharges were recorded (FIGS. 7A-7E). Amiloride bath perfusion reduced after-discharge duration by about 80% (from 21.0±3.5 sec to 4.7±2.4 sec, n=3; p<0.05) and burst firing frequency by about 90% (from 2.8±0.4 Hz to 0.3±0.1 Hz, n=3, p<0.05, FIG. 7A). Similarly, PcTX1 reduced after-discharge duration from 29.3±8.5 to 11.5±4.1 sec (reduced to 0.44±0.10 of control, n=4, p<0.05) and burst firing frequency from 0.9±0.1 to 0.5±0.2 Hz (reduced to 0.5±0.1 of control, n=4, p<0.05, FIG. 7B). Similar to ASIC1a blockade, seizure activity was attenuated in hippocampal slices from ASIC1^−/− mice (Xiong et al., 2004) (FIGS. 7C-7E). In wild-type (WT) mice, five sets of stimulus trains generated bursting activity with a duration of 13.9±2.0 sec and a firing frequency of 1.6±0.2 Hz, whereas in slices from ASIC1^−/− mice, identical stimulations generated after-discharges of only 5.8±3.3 sec duration and 0.4±0.2 Hz frequency (n=9 for both groups, p<0.05 for difference in duration and p<0.01 for frequency, FIG. 7E).
as §1, §2, §3

[3] = 100 μM amiloride, bath perfusion 10 min, evoked
[4] = 100 μM amiloride bath perfusion
[5] = PcTX1 200 ng/mL, bath perfusion 10 min, evoked

Molecule | amplitude of the first population spike [1, 3] [mV] | amplitude of the second population spike [1, 3] [mV] | number of population spikes [1, 3] | frequency of spontaneous clustered bursts [1] [min⁻¹] | frequency of spontaneous clustered bursts relative to control [1] | after-discharge duration [2, 4] [s] | burst firing frequency [2, 4] [Hz] | reduction of after-discharge duration [2, 4] | reduction of burst firing frequency [2, 4] | amplitude of the population spike [1, 5] [mV] | number of spikes [1, 5] | after-discharge duration ([2]; 200 ng/mL PcTX1) [s] | after-discharge duration relative to control ([2]; 200 ng/mL PcTX1) | burst firing frequency ([2]; 200 ng/mL PcTX1) [Hz] | burst firing frequency relative to control ([2]; 200 ng/mL PcTX1)
NC(N)=NC(=O)c1nc(Cl)c(N)nc1N [amiloride, 3,5-diamino-6-chloro-N(diaminomethylidene)pyrazine-2-carboxamide] | 0.5±0.2 | 0.2±0.05 | 3.3±0.8 | 26.0 ± 5.8 | 0.84±0.05 of control | 4.7 ± 2.4 | 0.3±0.1 | about 80% | about 90% | – | – | – | – | – | –
Psalmotoxin 1 [PcTX1] | – | – | – | 59.9 ± 11.3 | 0.68±0.07 of control | – | – | – | – | 1.6±0.2 | 3.0±0.6 | 11.5 ± 4.1 | 0.44±0.10 of control | 0.5±0.2 | 0.5±0.1 of control
